The text below walks through data of patent US6699678B1, “Chlamydia trachomatis specific peptides and their use in diagnostic assays” (Savyon Diagnostics Ltd., priority 1997, dated 2004).

The series is classed as physicochemical. From the text: c. Stabilizing the kit for longer shelf life.
Results: The wash buffer that enabled only three washing steps was the one that contained non-ionic detergent, this being the above-noted PBS-TWEEN buffer (see constituent no. (ii) in the above list).
This is also the case for the other reagents used in the improved kit, as mentioned above.

With `CCN(Cc1cccc(S(=O)(=O)[O-])c1)c1ccc(C(=C2C=CC(=[N+](CC)Cc3cccc(S(=O)(=O)[O-])c3)C=C2)c2ccccc2S(=O)(=O)[O-])cc1.[Na+].[Na+]` [blue brilliant], the “storage stability at 4° C. (in words)” value is given as “for one year” and the “storage stability at 37° C. (in words)” value is “stable for one month”.
On the same counts, the results for `O=S(=O)([O-])c1ccc(N=Nc2c(O)ccc3cc(S(=O)(=O)[O-])ccc23)cc1.[Na+].[Na+]` [yellow sunset] are “for one year” and “stable for one month”.
